Measurements from patent US12441733B2, “Substituted 2,4-dioxotetrahydropyrimidines as intermediates in the synthesis of bruton's tyrosine kinase inhibitors” (Novartis AG, priority 2018, dated 2025).

Tested on: OCI-LY3 cells
Assay: Resazurin cell viability (proliferation) assay in OCI-LY3 DLBCL cells
Format: cell-based
Conditions: Homo sapiens, OCI-LY3 cells (BTK independent), 72 h, 50% growth inhibition vs vehicle, read-out: OCI-LY3 Prol GI50
In short: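 Cells were seeded at 1×10^4 per well and dosed 3 h later: 8-point 1:4 dilutions from 10 μM (OCI-LY3), in triplicate, 72 h at 37 °C. Resazurin (13 μg/ml final) was added for the last 2 h and fluorescence read at 530/600 nm. GI50 is relative to DMSO vehicle, typically from ≥2 independent experiments.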

GI50 [µM]	SMILES
3.87	COc1ccc(C(=O)N2CCC3(CCN(Cc4ccc(-c5cc6c(-c7cc(F)cc(NC(=O)c8ccc(C(C)(C)O)cc8F)c7C)ncnc6[nH]5)cc4)CC3)CC2)cc1N1CCC(=O)NC1=O [Compound 9, N-(3-(6-(4-((9-(3-(2,4-Dioxotetrahydropyrimidin-1(2H)-yl)-4-methoxybenzoyl)-3,9-diazaspiro[5.5]undecan-3-yl)methyl)phenyl)-7H-pyrrolo[2.3-d]pyrimidin-4-yl)-5-fluoro-2-methylphenyl)-2-fluoro-4-(2-hydroxypropan-2-yl)benzamide]
3.83	Cc1c(NC(=O)c2ccc(C(C)(C)O)cc2F)cc(F)cc1-c1ncnc2[nH]c(-c3ccc(CCN4CCC5(CC4)CCN(C(=O)c4cccc(N6CCC(=O)NC6=O)c4)CC5)cc3)cc12 [Compound 12, N-(3-(6-(4-(2-(9-(3-(2,4-Dioxotetrahydropyrimidin-1(2H)-yl)benzoyl)-3,9-diazaspiro[5,5]undecan-3-yl)ethyl)phenyl)-7H-pyrrolo[2,3-d]pyrimidin-4-yl)-5-fluoro-2-methylphenyl)-2-fluoro-4-(2-hydroxypropan-2-yl)benzamide]
4.69	CCOc1ccc(C(=O)N2CCC3(CCN(Cc4ccc(-c5cc6c(-c7cc(F)cc(NC(=O)c8ccc(C(C)(C)O)cc8F)c7C)ncnc6[nH]5)cc4)CC3)CC2)cc1N1CCC(=O)NC1=O [Compound 4, N-(3-(6-(4-((9-(3-(2,4-Dioxotetrahydropyrimidin-1(2H)-yl)-4-ethoxybenzoyl)-3,9-diazaspiro[5.5]undecan-3-yl)methyl)phenyl)-7H-pyrrolo[2,3-d]pyrimidin-4-yl)-5-fluoro-2-methylphenyl)-2-fluoro-4-(2-hydroxypropan-2-yl)benzamide]
> 10	Cc1ccc(C(=O)N(C)CCCCCNCc2ccc(-c3cc4c(-c5cc(F)cc(NC(=O)c6ccc(C(C)(C)O)cc6F)c5C)ncnc4[nH]3)cc2)cc1N1CCC(=O)NC1=O [Compound 30, 3-(2,4-Dioxotetrahydropyrimidin-1(2H)-yl)-N-(5-((4-(4-(5-fluoro-3-(2-fluoro-4-(2-hydroxypropan-2-yl)benzamido)-2-methylphenyl)-7H-pyrrolo[2,3-d]pyrimidin-6-yl)benzyl)amino)pentyl)-N,4-dimethylbenzamide]
4.08	Cc1ccc(C(=O)N2CCC3(CCN(Cc4ccc(-c5cc6c(-c7cc(F)cc(NC(=O)c8ccc(C(C)(C)O)cc8F)c7C)ncnc6[nH]5)cc4)CC3)CC2)cc1N1CCC(=O)NC1=O [Compound 27, N-(3-(6-(4-((9-(3-(2,4-Dioxotetrahydropyrimidin-1(2H)-yl)-4-methylbenzoyl)-3,9-diazaspiro[5.5]undecan-3-yl)methyl)phenyl)-7H-pyrrolo[2,3-d]pyrimidin-4-yl)-5-fluoro-2-methylphenyl)-2-fluoro-4-(2-hydroxypropan-2-yl)benzamide]
6.55	Cc1ccc(C(=O)N2CCC3(CCN(CCc4ccc(-c5cc6c(-c7cc(F)cc(NC(=O)c8ccc(C(C)(C)O)cc8F)c7C)ncnc6[nH]5)cc4)CC3)CC2)cc1N1CCC(=O)NC1=O [Compound 5, N-(3-(6-(4-(2-(9-(3-(2,4-Dioxotetrahydropyrimidin-1(2H)-yl)-4-methylbenzoyl)-3,9-diazaspiro[5.5]undecan-3-yl)ethyl)phenyl)-7H-pyrrolo[2,3-d]pyrimidin-4-yl)-5-fluoro-2-methylphenyl)-2-fluoro-4-(2-hydroxypropan-2-yl)benzamide]
8.62	Cc1cc(F)c(C(=O)NCCCCCNCc2ccc(-c3cc4c(-c5cc(F)cc(NC(=O)c6ccc(C(C)(C)O)cc6F)c5C)ncnc4[nH]3)cc2)cc1N1CCC(=O)NC1=O [Compound 29, 5-(2,4-Dioxotetrahydropyrimidin-1(2H)-yl)-2-fluoro-N—(S-((4-(4-(5-fluoro-3-(2-fluoro-4-(2-hydroxypropan-2-yl)benzamido)-2-methylphenyl)-7H-pyrrolo[2,3-d]pyrimidin-6-yl)benzyl)amino)pentyl)-4-methylbenzamide]
7.9	COc1ccc(C(=O)N2CCC3(CC2)CCN(C(C)(C)Cc2ccc(-c4cc5c(-c6cc(F)cc(NC(=O)c7ccc(C(C)(C)O)cc7F)c6C)ncnc5[nH]4)cc2)CC3)cc1N1CCC(=O)NC1=O [Compound 20, N-(3-(6-(4-(2-(9-(3-(2,4-Dioxotetrahydropyrimidin-1(2H)-yl)-4-methoxybenzoyl)-3,9-diazaspiro[5.5]undecan-3-yl)-2-methylpropyl)phenyl)-7H-pyrrolo[2,3-d]pyrimidin-4-yl)-5-fluoro-2-methylphenyl)-2-fluoro-4-(2-hydroxypropan-2-yl)benzamide]
> 10	COc1ccc(C(=O)N2CCC(OC3CCN(CCc4ccc(-c5cc6c(-c7cc(F)cc(NC(=O)c8ccc(C(C)(C)O)cc8F)c7C)ncnc6[nH]5)cc4)CC3)CC2)cc1N1CCC(=O)NC1=O [Compound 34, N-(3-(6-(4-(2-(4-((1-(3-(2,4-Dioxotetrahydropyrimidin-1(2H)-yl)-4-methoxybenzoyl)piperidin-4-yl)oxyl)piperidin-1-yl)ethyl)phenyl)-7H-pyrrolo[2,3-d]pyrimidin-4-yl)-5-fluoro-2-methylphenyl)-2-fluoro-4-(2-hydroxypropan-2-yl)benzamide]
3.05	COc1ccc(C(=O)NCCN2CCC3(CC2)CCN(Cc2ccc(-c4cc5c(-c6cc(F)cc(NC(=O)c7ccc(C(C)(C)O)cc7F)c6C)ncnc5[nH]4)cc2)CC3)cc1N1CCC(=O)NC1=O [Compound 44, N-(3-(6-(4-((9-(2-(3-(2,4-dioxotetrahydropyrimidin-1(2H)-yl)-4-methoxybenzamido)ethyl)-3,9-diazaspiro[5.5]undecan-3-yl)methyl)phenyl)-7H-pyrrolo[2,3-d]pyrimidin-4-yl)-5-fluoro-2-methylphenyl)-2-fluoro-4-(2-hydroxypropan-2-yl)benzamide]
3.43	Cc1c(NC(=O)c2ccc(C(C)(C)O)cc2F)cc(F)cc1-c1ncnc2[nH]c(-c3ccc(COC4CCN(CCC5CCN(C(=O)c6ccc(F)c(N7CCC(=O)NC7=O)c6)CC5)CC4)cc3)cc12 [Compound 6, N-(3-(6-(4-(((1-(2(1-(3-(2,4-dioxotetrahydropyrimidin-1(2H)-yl)-4-fluorobenzoyl)piperidin-4-yl)ethyl)piperidin-4-yl)oxyl)methyl)phenyl)-7H-pyrrolo[2,3-d]pyrimidin-4-yl)-5-fluoro-2-methylphenyl)-2-fluoro-4-(2-hydroxypropan-2-yl)benzamide]
4.85	COc1ccc(C(=O)N2CCC(OC3CCN(Cc4ccc(-c5cc6c(-c7cc(F)cc(NC(=O)c8ccc(C(C)(C)O)cc8F)c7C)ncnc6[nH]5)cc4)CC3)CC2)cc1N1CCC(=O)NC1=O [Compound 8, N-(3-(6-(4-((4-((1-(3-(2,4-dioxotetrahydropyrimidin-1(2H)-yl)-4-methoxybenzoyl)piperidin-4-yl)oxyl)piperidin-1-yl)methyl)phenyl)-7H-pyrrolo[2,3-d]pyrimidin-4-yl)-5-fluoro-2-methylphenyl)-2-fluoro-4-(2-hydroxypropan-2-yl)benzamide]
4.11	COc1ccc(C(=O)N2CCN(C(=O)N3CCN(Cc4ccc(-c5cc6c(-c7cc(F)cc(NC(=O)c8ccc(C(C)(C)O)cc8F)c7C)ncnc6[nH]5)cc4)CC3)CC2)cc1N1CCC(=O)NC1=O [Compound 22, N-(3-(6-(4-((4-(4-(3-(2,4-Dioxotetrahydropyrimidin-1(2H)-yl)-4-methoxybenzoyl)piperazine-1-carbonyl)piperazin-1-yl)methyl)phenyl)-7H-pyrrolo[2,3-d]pyrimidin-4-yl)-5-fluoro-2-methylphenyl)-2-fluoro-4-(2-hydroxypropan-2-yl)benzamide]
